# Measured values: article PMC8126724, “Infant-Associated Bifidobacterial β-Galactosidases and Their Ability to Synthesize Galacto-Oligosaccharides” (Frontiers in Microbiology, 2021)
# Tests used:
# [1] = system: T1, BgaD; experiment: o-nitrophenol release, A420; assay type: biochemical, Bifidobacterium longum subsp. longum; conditions: 0.1 M sodium acetate pH 6.5, 40 °C; unit mM, not in table
# T1 construct: gene B8809_0415; His6-tagged, expressed in Lactococcus lactis (pNZ8150), Ni-purified; trimer
# Description: o-nitrophenol release, A420 on BgaD
# [2] = system: T2, BgaE; experiment: o-nitrophenol release, A420; assay type: biochemical, Bifidobacterium longum subsp. longum; conditions: 0.1 M sodium acetate pH 6.5, 40 °C; unit mM, not in table
# T2 construct: gene B8809_0611; tetramer
# Description: o-nitrophenol release, A420 on BgaE
smiles,measurement,setting,value
O=[N+]([O-])c1ccccc1O[C@@H]1O[C@H](CO)[C@H](O)[C@H](O)[C@H]1O [ONPG],Km,[1],17 mM
same,Km,[2],11.1 mM
